Tests used:
[1] = Inhibition of recombinant full length NS3/4A protease in Hepatitis C virus subtype 3a infected in human HuH7 cells using Ac-Asp-Glu-Asp (EDANS)-Glu-Glu-Abu-(COO) Ala-Ser-Lys (DABCYL)-NH2 as substrate by FRET assay; conditions: Huh-7
[2] = Inhibition of recombinant full length NS3/4A protease in Hepatitis C virus subtype 1a replicon infected in human HuH7 cells preincubated for 3 days followed by substrate addition and measured after 2 hrs by renilla luciferase reporter gene assay; assay type: cell-based; conditions: Huh-7
[3] = Inhibition of recombinant full length NS3/4A protease in Hepatitis C virus subtype 1b replicon infected in human HuH7 cells preincubated for 3 days followed by substrate addition and measured after 2 hrs by renilla luciferase reporter gene assay; assay type: cell-based; conditions: Huh-7
[4] = Inhibition of recombinant full length NS3/4A protease in Hepatitis C virus subtype 2a replicon infected in human HuH7 cells preincubated for 3 days followed by substrate addition and measured after 2 hrs by renilla luciferase reporter gene assay; assay type: cell-based; conditions: Huh-7
[5] = Inhibition of recombinant full length NS3/4A protease in Hepatitis C virus subtype 3a replicon infected in human HuH7 cells preincubated for 3 days followed by substrate addition and measured after 2 hrs by renilla luciferase reporter gene assay; assay type: cell-based; conditions: Huh-7
[6] = Inhibition of recombinant full length NS3/4A R155K mutant protease in Hepatitis C virus subtype 1a replicon infected in human HuH7 cells preincubated for 3 days followed by substrate addition and measured after 2 hrs by renilla luciferase reporter gene assay; assay type: cell-based; conditions: Huh-7
[7] = Inhibition of recombinant full length NS3/4A D168V mutant protease in Hepatitis C virus subtype 1b replicon infected in human HuH7 cells preincubated for 3 days followed by substrate addition and measured after 2 hrs by renilla luciferase reporter gene assay; assay type: cell-based; conditions: Huh-7
[8] = Metabolic stability in human liver microsomes assessed as half-life incubated for 5 to 45 mins in presence of NADPH by LC-MS analysis; assay type: ADME, Microsome; conditions: time 5-45 min
[9] = AUC (0 to 24 hrs) in rat at 5 mg/kg, po; assay type: ADME, organism-based; set-up: time < 24 hr, route oral, dose 5 mg/kg; conditions: in vivo
[10] = Cmax in rat at 5 mg/kg, po; assay type: ADME, organism-based; set-up: route oral, dose 5 mg/kg; conditions: in vivo
[11] = Drug concentration in rat liver at 5 mg/kg, po measured upto 24 hrs; assay type: ADME, organism-based; conditions: read-out: Ct
[12] = Ratio of drug concentration in liver to plasma in rat at 5 mg/kg, po measured upto 24 hrs; assay type: ADME, organism-based; conditions: liver and plasma
[13] = Oral bioavailability in rat at 5 mg/kg; assay type: ADME, organism-based; conditions: in vivo
[14] = Half-life in dog at 3 mg/kg, po or 1 mg/kg, iv; assay type: ADME, organism-based, Canis lupus familiaris; conditions: in vivo
[15] = Half-life in rat at 5 mg/kg, po or 1 mg/kg, iv; assay type: ADME, organism-based; conditions: in vivo
[16] = AUC in rat at 5 mg/kg, po or 1 mg/kg, iv; assay type: ADME, organism-based; set-up: dose 5 mg/kg; conditions: in vivo
[17] = Clearance in dog at 3 mg/kg, po or 1 mg/kg, iv; assay type: ADME, organism-based, Canis lupus familiaris; conditions: in vivo
[18] = Oral bioavailability in dog at 3 mg/kg; assay type: ADME, organism-based, Canis lupus familiaris; conditions: in vivo
[19] = AUC in dog at 3 mg/kg, po or 1 mg/kg, iv; assay type: ADME, organism-based, Canis lupus familiaris; set-up: dose 3 mg/kg; conditions: in vivo
[20] = Half-life in cynomolgus monkey at 3 mg/kg, po or 1 mg/kg, iv; assay type: ADME, organism-based, Macaca fascicularis; conditions: in vivo
[21] = Oral bioavailability in cynomolgus monkey at 3 mg/kg; assay type: ADME, organism-based, Macaca fascicularis; conditions: in vivo
[22] = AUC in cynomolgus monkey at 3 mg/kg, po or 1 mg/kg, iv; assay type: ADME, organism-based, Macaca fascicularis; set-up: dose 3 mg/kg; conditions: in vivo
[23] = Drug concentration in cynomolgus monkey plasma at 3 mg/kg, po measured upto 24 hrs; assay type: ADME, organism-based, Macaca fascicularis; conditions: read-out: Ct
[24] = Inhibition of HCV 1a NS3/4A protease; set-up: species or system Hepatitis C virus subtype 1a
[25] = Inhibition of HCV 1b NS3/4A protease; set-up: species or system Hepatitis C virus subtype 1b
[26] = Inhibition of HCV 2b NS3/4A protease; set-up: species or system Hepatitis C virus subtype 2b
[27] = Inhibition of HCV 4a NS3/4A protease; set-up: species or system Hepatitis C virus subtype 4a
[28] = Inhibition of HCV 1a NS3/4A protease preincubated for 45 mins in presence of compound; set-up: species or system Hepatitis C virus subtype 1a
[29] = Inhibition of HCV 2a NS3/4A protease preincubated for 45 mins in presence of compound; set-up: species or system Hepatitis C virus subtype 2a
[30] = Inhibition of HCV 3a NS3/4A protease preincubated for 45 mins in presence of compound; set-up: species or system Hepatitis C virus subtype 3a
[31] = Inhibition of HCV 4a NS3/4A protease preincubated for 45 mins in presence of compound; set-up: species or system Hepatitis C virus subtype 4a
[32] = Inhibition of HCV 6a NS3/4A protease preincubated for 45 mins in presence of compound; set-up: species or system Hepatitis C virus subtype 6a
[33] = Selectivity index, ratio of IC50 for inhibition of HCV 1a NS3/4A protease to IC50 for inhibition of HCV 1a NS3/4A protease preincubated for 45 mins in presence of compound
[34] = Selectivity index, ratio of IC50 for inhibition of HCV 1b NS3/4A protease to IC50 for inhibition of HCV 1b NS3/4A protease preincubated for 45 mins in presence of compound
[35] = Selectivity index, ratio of IC50 for inhibition of HCV 2a NS3/4A protease to IC50 for inhibition of HCV 2a NS3/4A protease preincubated for 45 mins in presence of compound
[36] = Selectivity index, ratio of IC50 for inhibition of HCV 2b NS3/4A protease to IC50 for inhibition of HCV 2b NS3/4A protease preincubated for 45 mins in presence of compound
[37] = Selectivity index, ratio of IC50 for inhibition of HCV 5a NS3/4A protease to IC50 for inhibition of HCV 5a NS3/4A protease preincubated for 45 mins in presence of compound
[38] = Selectivity index, ratio of IC50 for inhibition of HCV 6a NS3/4A protease to IC50 for inhibition of HCV 6a NS3/4A protease preincubated for 45 mins in presence of compound
Cytochrome P450 3A4 [39] = biological target: T1, Cytochrome P450 3A4 (Homo sapiens, UniProt P08684); assay: Inhibition of human CYP3A4 in human pooled liver microsomes at 0.002 to 40 uM in presence of midazolam as substrate preincubated in presence of NADPH followed by addition of substrate by LC-MS/MS analysis; assay type: ADME; conditions: TDE = time-dependent effect, dose 0.002-40 µM, time <=30 min
Cytochrome P450 3A4 [40] = biological target: T1, Cytochrome P450 3A4; assay: Inhibition of human CYP3A4 in human pooled liver microsomes in presence of testosterone as substrate preincubated for 0 mins in presence of NADPH followed by addition of substrate by LC-MS/MS analysis; assay type: ADME
Cytochrome P450 3A4 [41] = biological target: T1, Cytochrome P450 3A4; assay: Inhibition of human CYP3A4 in human pooled liver microsomes in presence of midazolam as substrate preincubated for 0 mins in presence of NADPH followed by addition of substrate by LC-MS/MS analysis; assay type: ADME
Cytochrome P450 3A4 [42] = biological target: T1, Cytochrome P450 3A4; assay: Inhibition of human CYP3A4 in human pooled liver microsomes in presence of testosterone as substrate preincubated for 30 mins in presence of NADPH followed by addition of substrate by LC-MS/MS analysis; assay type: ADME
Cytochrome P450 3A4 [43] = biological target: T1, Cytochrome P450 3A4; assay: Inhibition of human CYP3A4 in human pooled liver microsomes in presence of midazolam as substrate preincubated for 30 mins in presence of NADPH followed by addition of substrate by LC-MS/MS analysis; assay type: ADME

T1 sequence (P08684 whole entry): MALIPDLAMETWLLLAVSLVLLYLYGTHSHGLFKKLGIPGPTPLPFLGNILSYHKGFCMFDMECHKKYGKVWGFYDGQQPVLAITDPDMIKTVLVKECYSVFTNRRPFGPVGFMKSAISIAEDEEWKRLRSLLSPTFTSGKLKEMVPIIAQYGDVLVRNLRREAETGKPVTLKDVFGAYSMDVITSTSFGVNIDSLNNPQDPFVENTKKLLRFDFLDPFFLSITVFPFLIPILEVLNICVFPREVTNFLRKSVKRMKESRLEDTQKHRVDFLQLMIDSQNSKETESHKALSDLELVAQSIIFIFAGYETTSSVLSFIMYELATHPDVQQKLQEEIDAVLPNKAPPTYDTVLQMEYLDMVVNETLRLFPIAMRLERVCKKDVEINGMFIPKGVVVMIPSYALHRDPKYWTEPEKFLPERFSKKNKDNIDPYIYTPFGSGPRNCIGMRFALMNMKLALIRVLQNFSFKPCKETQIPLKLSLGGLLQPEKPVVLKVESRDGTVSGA

CC[C@@H]1C[C@H](C)CC/C=C\[C@@H]2C[C@@]2(C(=O)NS(=O)(=O)C2(C)CC2)NC(=O)[C@@H]2C[C@@H](Oc3nccc4cc(OC)c(F)cc34)CN2C(=O)[C@H]1NC(=O)OC(C)(C)C(F)(F)F showed an IC50 [1] of 6.3 nM, an EC50 [2] of 2.8 nM and an EC50 [3] of 1.1 nM. It also gave an EC50 [4] of 1.4 nM, an EC50 [5] of 14 nM and an EC50 [6] of 11 nM. The EC50 [7] was 6 nM, the half-life [8] was 0.467 h and the AUC(0-t) at 24 h [9] was 151 µM·h. It also gave a Cmax [10] of 12.1 µM, a concentration at 24 h [11] of 5.83 µM and a Kp at 24 h [12] of 1.5. For the same compound, the bioavailability [13] was 50%, the half-life [14] was 8.2 h and the half-life [15] was 9.3 h. It also gave an AUC [16] of 241 µM·h, a clearance [17] of 0.018 L/h/kg and a bioavailability [18] of 87%. For the same compound, the AUC [19] was 81 µM·h, the half-life [20] was 3 h and the bioavailability [21] was 14%. It also gave an AUC [22] of 0.898 µM·h, a concentration at 24 h [23] of 0.001 µM and an IC50 [24] of 0.8 nM. The IC50 [25] was 0.6 nM, the IC50 [26] was 2 nM and the IC50 [27] was 0.9 nM. The IC50 [28] was 0.2 nM, the IC50 [29] was 0.2 nM and the IC50 [30] was 7.5 nM. It also gave an IC50 [31] of 0.1 nM, an IC50 [32] of 0.1 nM and a Selectivity Index [33] of 4. The Selectivity Index [34] was 6, the Selectivity Index [35] was 3.5 and the Selectivity Index [36] was 2. For the same compound, the Selectivity Index [37] was 10, the Selectivity Index [38] was 6 and the “inhibition (INH)” value (Cytochrome P450 3A4 [39]) was “Tde”. The IC50 (Cytochrome P450 3A4 [40]) was > 40000 nM, the IC50 (Cytochrome P450 3A4 [41]) was > 40000 nM and the IC50 (Cytochrome P450 3A4 [42]) was 3020 nM. For the same compound, the IC50 (Cytochrome P450 3A4 [43]) was 2850 nM.
